Data from ChEMBL document CHEMBL1955751, “Structure-activity relationship of the 7-hydroxy benzimidazole analogs as glycogen synthase kinase 3β inhibitor” (Bioorg Med Chem Lett, 2012).

Assays:
[1] = Ratio of CCIC50 for human RD cells to EC50 for GSK3-beta in human RD cells
[2] = Cytotoxicity against human RD cells by MTS assay; type: cell-based; settings: read-out: CCIC50
[3] = target: T1, Glycogen synthase kinase-3 beta (Homo sapiens, UniProt P49841); experiment: Inhibition of GSK3-beta
Target sequence in this assay (P49841 whole entry): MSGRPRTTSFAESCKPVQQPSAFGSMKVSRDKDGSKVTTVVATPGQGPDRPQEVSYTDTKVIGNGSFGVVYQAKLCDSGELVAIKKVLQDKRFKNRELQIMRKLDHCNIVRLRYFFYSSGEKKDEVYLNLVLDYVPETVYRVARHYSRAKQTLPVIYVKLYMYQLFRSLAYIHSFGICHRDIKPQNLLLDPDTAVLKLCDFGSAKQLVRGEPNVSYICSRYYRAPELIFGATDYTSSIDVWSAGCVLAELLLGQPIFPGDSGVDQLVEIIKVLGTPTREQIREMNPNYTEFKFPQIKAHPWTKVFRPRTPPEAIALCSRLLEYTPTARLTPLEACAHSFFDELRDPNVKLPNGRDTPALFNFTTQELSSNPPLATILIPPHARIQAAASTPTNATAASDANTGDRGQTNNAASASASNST

[4] = target: T1, Glycogen synthase kinase-3 beta; experiment: Inhibition of GSK3-beta in human RD cells; type: cell-based
Target sequence in this assay (P49841 whole entry): as above

[5] = target: T1, Glycogen synthase kinase-3 beta; experiment: Inhibition of GSK3-beta assessed as residual activity at 5 uM
Target sequence in this assay (P49841 whole entry, looked up): as the sequence (P49841 whole entry) above

[6] = target: T1, Glycogen synthase kinase-3 beta; experiment: Inhibition of GSK3-beta in human RD cells assessed as glycogen synthase activation measured after 24 hrs under serum starving condition; type: cell-based
Target sequence in this assay (P49841 whole entry): as above

[7] = target: Vascular endothelial growth factor receptor 2 (Homo sapiens) (UniProt P35968); experiment: Inhibition of KDR assessed as residual activity at 5 uM
[8] = target: T2, Inhibitor of nuclear factor kappa-B kinase subunit beta (Homo sapiens) (UniProt O14920); experiment: Inhibition of IKK-beta assessed as residual activity at 5 uM
T2 sequence (whole entry): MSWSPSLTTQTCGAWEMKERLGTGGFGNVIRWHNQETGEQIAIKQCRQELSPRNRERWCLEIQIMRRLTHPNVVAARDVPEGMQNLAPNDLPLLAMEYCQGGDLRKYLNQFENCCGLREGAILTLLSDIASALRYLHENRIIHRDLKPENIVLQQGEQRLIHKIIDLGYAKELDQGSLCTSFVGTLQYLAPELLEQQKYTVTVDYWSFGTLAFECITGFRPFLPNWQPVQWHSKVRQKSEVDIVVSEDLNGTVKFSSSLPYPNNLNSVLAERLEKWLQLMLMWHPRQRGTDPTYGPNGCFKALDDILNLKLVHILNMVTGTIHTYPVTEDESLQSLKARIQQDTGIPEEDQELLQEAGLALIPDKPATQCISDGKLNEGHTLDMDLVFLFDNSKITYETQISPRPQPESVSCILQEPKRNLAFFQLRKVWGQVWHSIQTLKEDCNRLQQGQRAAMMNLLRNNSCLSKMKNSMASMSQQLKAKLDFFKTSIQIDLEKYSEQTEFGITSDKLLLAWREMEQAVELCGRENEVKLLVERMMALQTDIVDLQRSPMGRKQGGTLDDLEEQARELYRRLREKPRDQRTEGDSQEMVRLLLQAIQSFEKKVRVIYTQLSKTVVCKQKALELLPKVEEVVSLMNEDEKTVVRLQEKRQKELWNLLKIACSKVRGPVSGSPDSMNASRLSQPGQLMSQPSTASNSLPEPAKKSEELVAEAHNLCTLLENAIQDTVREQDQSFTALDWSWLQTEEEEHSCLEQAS

[9] = target: Mitogen-activated protein kinase 1 (Homo sapiens) (UniProt P28482); experiment: Inhibition of ERK2 assessed as residual activity at 5 uM
[10] = target: Mitogen-activated protein kinase 3 (Homo sapiens) (UniProt P27361); experiment: Inhibition of ERK1 assessed as residual activity at 5 uM
[11] = target: Cyclin-dependent kinase 4 (Homo sapiens) (UniProt P11802); experiment: Inhibition of CDK4 assessed as residual activity at 5 uM
[12] = Inhibition of AKT assessed as residual activity at 5 uM
[13] = target: Cyclin-dependent kinase 1 (Homo sapiens) (UniProt P06493); experiment: Inhibition of CDK1 assessed as residual activity at 5 uM
Chain of Cyclin-dependent kinase 1 (Homo sapiens) (P06493 whole entry, looked up): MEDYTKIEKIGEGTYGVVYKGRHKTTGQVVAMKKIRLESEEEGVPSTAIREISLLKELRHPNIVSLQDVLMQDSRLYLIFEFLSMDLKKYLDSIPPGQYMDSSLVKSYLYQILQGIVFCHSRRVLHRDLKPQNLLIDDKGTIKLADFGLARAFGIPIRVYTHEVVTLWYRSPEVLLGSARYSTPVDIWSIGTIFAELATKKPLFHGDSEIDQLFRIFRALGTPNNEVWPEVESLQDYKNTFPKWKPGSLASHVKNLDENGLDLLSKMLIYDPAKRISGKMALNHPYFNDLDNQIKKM

Chain of Mitogen-activated protein kinase 1 (Homo sapiens) (P28482 whole entry): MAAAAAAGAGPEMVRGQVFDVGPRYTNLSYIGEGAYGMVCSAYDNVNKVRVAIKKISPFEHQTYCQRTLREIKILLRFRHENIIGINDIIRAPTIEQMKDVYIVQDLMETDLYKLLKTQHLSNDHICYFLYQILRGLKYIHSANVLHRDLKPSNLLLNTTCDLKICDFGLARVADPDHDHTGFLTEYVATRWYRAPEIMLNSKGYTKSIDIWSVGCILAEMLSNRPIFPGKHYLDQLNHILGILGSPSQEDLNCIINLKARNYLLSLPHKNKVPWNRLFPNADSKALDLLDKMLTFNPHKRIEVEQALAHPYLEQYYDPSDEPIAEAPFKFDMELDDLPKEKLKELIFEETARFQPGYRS
Chain of Cyclin-dependent kinase 4 (Homo sapiens) (P11802 whole entry): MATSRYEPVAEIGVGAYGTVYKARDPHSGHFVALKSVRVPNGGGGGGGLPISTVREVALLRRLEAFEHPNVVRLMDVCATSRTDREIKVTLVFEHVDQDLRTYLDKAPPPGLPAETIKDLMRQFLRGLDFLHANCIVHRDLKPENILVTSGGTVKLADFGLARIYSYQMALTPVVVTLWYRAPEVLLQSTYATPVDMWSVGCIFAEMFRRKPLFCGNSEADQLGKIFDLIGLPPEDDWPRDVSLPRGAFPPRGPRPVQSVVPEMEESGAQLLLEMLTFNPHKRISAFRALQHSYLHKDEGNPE
Chain of Mitogen-activated protein kinase 3 (Homo sapiens) (P27361 whole entry): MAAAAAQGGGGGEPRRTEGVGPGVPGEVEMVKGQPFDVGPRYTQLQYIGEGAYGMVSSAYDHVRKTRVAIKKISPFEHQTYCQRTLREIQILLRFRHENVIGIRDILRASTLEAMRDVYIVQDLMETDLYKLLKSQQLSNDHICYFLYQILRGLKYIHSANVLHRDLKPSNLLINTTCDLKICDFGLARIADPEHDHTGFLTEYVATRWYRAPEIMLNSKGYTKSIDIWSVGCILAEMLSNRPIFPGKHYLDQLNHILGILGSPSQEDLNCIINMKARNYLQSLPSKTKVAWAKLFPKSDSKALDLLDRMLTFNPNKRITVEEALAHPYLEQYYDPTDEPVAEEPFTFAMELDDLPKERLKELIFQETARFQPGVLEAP
Chain of Vascular endothelial growth factor receptor 2 (Homo sapiens) (P35968 whole entry): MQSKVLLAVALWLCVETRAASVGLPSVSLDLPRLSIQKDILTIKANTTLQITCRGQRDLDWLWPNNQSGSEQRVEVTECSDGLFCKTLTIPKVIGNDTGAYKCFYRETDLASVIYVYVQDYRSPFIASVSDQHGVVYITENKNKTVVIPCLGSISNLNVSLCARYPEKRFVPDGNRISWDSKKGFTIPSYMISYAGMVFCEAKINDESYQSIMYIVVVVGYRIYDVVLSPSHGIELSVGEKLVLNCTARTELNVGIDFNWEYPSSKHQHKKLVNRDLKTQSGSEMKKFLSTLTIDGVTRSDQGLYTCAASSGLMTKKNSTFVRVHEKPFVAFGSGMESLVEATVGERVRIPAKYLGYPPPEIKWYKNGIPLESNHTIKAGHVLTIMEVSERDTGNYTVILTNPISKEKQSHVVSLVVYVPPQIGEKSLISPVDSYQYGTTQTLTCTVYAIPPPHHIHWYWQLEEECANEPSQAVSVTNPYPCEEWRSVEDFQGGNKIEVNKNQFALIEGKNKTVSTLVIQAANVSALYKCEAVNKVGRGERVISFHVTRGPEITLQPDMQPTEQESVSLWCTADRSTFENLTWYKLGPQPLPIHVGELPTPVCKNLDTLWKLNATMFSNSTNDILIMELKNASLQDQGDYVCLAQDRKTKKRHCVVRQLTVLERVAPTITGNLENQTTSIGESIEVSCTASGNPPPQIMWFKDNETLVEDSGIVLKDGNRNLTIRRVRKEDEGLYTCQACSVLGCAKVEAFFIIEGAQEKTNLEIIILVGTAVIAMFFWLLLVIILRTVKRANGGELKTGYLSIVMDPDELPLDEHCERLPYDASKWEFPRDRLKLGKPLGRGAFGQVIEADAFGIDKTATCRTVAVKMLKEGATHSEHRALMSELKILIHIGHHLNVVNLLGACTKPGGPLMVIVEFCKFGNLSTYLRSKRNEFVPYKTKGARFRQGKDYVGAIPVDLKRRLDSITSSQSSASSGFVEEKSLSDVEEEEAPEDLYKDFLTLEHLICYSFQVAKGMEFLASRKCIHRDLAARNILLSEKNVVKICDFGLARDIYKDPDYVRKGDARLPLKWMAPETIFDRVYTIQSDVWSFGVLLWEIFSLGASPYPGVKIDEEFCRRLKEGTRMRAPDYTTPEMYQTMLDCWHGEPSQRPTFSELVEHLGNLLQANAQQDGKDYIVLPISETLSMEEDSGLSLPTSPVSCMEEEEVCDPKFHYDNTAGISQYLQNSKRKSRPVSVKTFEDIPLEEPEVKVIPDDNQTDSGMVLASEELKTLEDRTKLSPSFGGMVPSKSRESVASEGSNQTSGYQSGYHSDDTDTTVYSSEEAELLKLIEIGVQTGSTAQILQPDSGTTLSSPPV

SMILES	Ratio [1]	CC50 [2] [nM]	IC50 [3] [nM]	EC50 [4] [nM]	Activity [5] [%]	also measured
CS(=O)(=O)Nc1ccc(CCNC(=O)c2ccc(O)c3[nH]c(-c4ccc(Cl)cc4)nc23)cc1	233	28000	7	120		
Cc1nc2c(O)ccc(C(=O)NCCc3ccc(NS(C)(=O)=O)cc3)c2[nH]1				21000		
O=C(NCCCn1ccnc1)c1ccc(O)c2[nH]c(-c3ccc(Cl)cc3Cl)nc12	187	45000	15	240		
CS(=O)(=O)Nc1ccc(CCNC(=O)c2ccc(O)c3[nH]c(Cc4ccccc4)nc23)cc1			1600	3900	18	
CS(=O)(=O)Nc1ccc(CCNC(=O)c2ccc(O)c3[nH]c(-c4ccc(F)cc4)nc23)cc1				400		
O=C(O)COc1cccc(CCCNC(=O)c2ccc(O)c3nc(-c4ccc(Cl)cc4)[nH]c23)c1		17000	31	250		EC50 [6]: 80 nM
O=C(NCCCn1cnc(Cl)c1Cl)c1ccc(O)c2nc(-c3ccco3)[nH]c12		70000	10	50		EC50 [6]: 40 nM
CS(=O)(=O)Nc1ccc(CCNC(=O)c2ccc(O)c3[nH]c(C4CCCC4)nc23)cc1			44	2700		
CCCCNC(=O)c1ccc(O)c2[nH]c(Cc3ccccc3)nc12					63	
Cc1ccc(S(=O)(=O)Nc2ccc(CCNC(=O)c3ccc(O)c4[nH]c(Cc5ccccc5)nc34)cc2)cc1			2800		36	
CS(=O)(=O)Nc1ccc(CCNC(=O)c2ccc(O)c3nc(C4CC4)[nH]c23)cc1			140	4800		
O=C(NCc1cccc(O)c1)c1ccc(O)c2[nH]c(Cc3ccccc3)nc12					53	
O=C(NCCCn1cnc(Cl)c1Cl)c1ccc(O)c2[nH]c(-c3ccc(Cl)cc3Cl)nc12	545				0	Activity [7]: 109%; Activity [8]: 80.7%; Activity [9]: 102%; Activity [10]: 97.9%; Activity [11]: 74.9%
CS(=O)(=O)Nc1ccc(CCNC(=O)c2ccc(O)c3[nH]c(-c4ccc(F)cc4Cl)nc23)cc1			20	230		
O=C(NCCCn1ccnc1)c1ccc(O)c2[nH]c(-c3ccc(F)c(Cl)c3)nc12	>204				1	Activity [12]: 83.9%; Activity [7]: 85.3%; Activity [8]: 80%; Activity [9]: 76%; Activity [10]: 66.5%; Activity [13]: 71.3%; Activity [11]: 52.4%
O=C(NCCCn1cnc(Cl)c1Cl)c1ccc(O)c2nc(-c3ccc(Cl)cc3Cl)[nH]c12		60000	6	110		EC50 [6]: 170 nM
CS(=O)(=O)Nc1ccc(CCNC(=O)c2ccc(O)c3nc(-c4ccc(F)cc4F)[nH]c23)cc1				580		EC50 [6]: 13 nM
O=C(NCCc1ccc([N+](=O)[O-])cc1)c1ccc(O)c2[nH]c(Cc3ccccc3)nc12					32	
NC(=O)c1ccc(O)c2[nH]c(Cc3ccccc3)nc12					75	
CCN1CCN(C(=O)c2ccc(CCNC(=O)c3ccc(O)c4[nH]c(-c5cccs5)nc34)cc2)CC1	127				0.9	Activity [12]: 96%; Activity [7]: 60.8%; Activity [8]: 72.7%; Activity [9]: 80.7%; Activity [10]: 80.9%; Activity [13]: 70.4%; Activity [11]: 68.2%
O=C(NCCCn1cnc(Cl)c1Cl)c1ccc(O)c2[nH]c(-c3cccs3)nc12	>2941	> 100000	8	34		
Cc1ccc(S(=O)(=O)Nc2ccc(CCNC(=O)c3ccc(O)c4[nH]c(-c5ccc(F)cc5)nc34)cc2)cc1	184	17500		95		
CCN1CCN(C(=O)c2ccc(CCNC(=O)c3ccc(O)c4nc(-c5cccs5)[nH]c34)cc2)CC1		51000	46	400		
O=C(NCCCn1cnc(Cl)c1Cl)c1ccc(O)c2[nH]c(-c3ccco3)nc12	1400				-1.7	Activity [12]: 92.3%; Activity [7]: 83.6%; Activity [8]: 74.7%; Activity [9]: 70.6%; Activity [10]: 53.9%; Activity [13]: 65.2%; Activity [11]: 38.6%
CS(=O)(=O)Nc1ccc(CCNC(=O)c2ccc(O)c3nc(-c4ccncc4)[nH]c23)cc1			110	25000		
O=C(O)COc1cccc(CCCNC(=O)c2ccc(O)c3[nH]c(-c4ccc(Cl)cc4)nc23)c1	68				0.3	Activity [12]: 100%; Activity [7]: 54.5%; Activity [8]: 87.3%; Activity [9]: 104%; Activity [10]: 80%; Activity [13]: 90.9%; Activity [11]: 58.6%
Cc1cn(CCCNC(=O)c2ccc(O)c3[nH]c(-c4cccs4)nc23)cn1	>322	> 100000	50	310		
CS(=O)(=O)Nc1ccc(CCNC(=O)c2ccc(O)c3[nH]c(-c4ccc(F)cc4F)nc23)cc1					-0.58	Activity [7]: 114%; Activity [8]: 93.1%; Activity [9]: 91.4%; Activity [10]: 73.4%; Activity [11]: 49.2%
O=C(NCCc1ccc([N+](=O)[O-])cc1)c1ccc(O)c2nc(Cc3ccccc3)[nH]c12			2000			
O=C(NCCCn1ccnc1)c1ccc(O)c2nc(-c3ccc(F)c(Cl)c3)[nH]c12		> 100000		490		EC50 [6]: 100 nM
